The values below come from paper PMC9839507 (ACS applied materials & interfaces, 2022).

For the assay, the system named is orthotopic U87MG-luc glioma. It is filed as in vivo, BALB/c nude mice.

`CC1(C)C(/C=C/C=C/C=C/C=C2\N(CCCCS(=O)(=O)O)c3ccc4ccccc4c3C2(C)C)=[N+](CCCCS(=O)(=O)[O-])c2ccc3ccccc3c21` [ICG, indocyanine green, reference compound]: the “detection in orthotopic glioma by fluorescent imaging” value (2 h after i.v. injection, 30 nmol, n = 3) is “detected”. The “ICG signal at the tumor site by tissue fluorescence imaging” value (Figure S9) is listed as “slightly detectable”. Also, the “ex vivo fluorescent signals in tumors” value (brains harvested at 72 h postinjection) was “undetectable”.
